# In PubChem BioAssay (NCI):
# Values joined by “and” are separate entries in the source; they are usually repeats but may differ in a detail not shown here. Equal entries are not always repeated.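 48-hour exposure; five concentrations; linearly interpolated endpoints. The concentration for 50% growth inhibition is given as GI50. TGI marks complete inhibition of growth.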
# Key:
# Assay in all cases: NCI-60 cell line screen, 48 h
# [1] = system: HCC-2998 colon
# [2] = system: HCT-116 colon
# [3] = system: HS 578T breast
# [4] = system: MDA-MB-231 breast
# [5] = system: PC-3 prostate
# [6] = system: RXF 393 renal
# [7] = system: SF-295 CNS
# [8] = system: SNB-19 CNS
# [9] = system: SR leukemia
# [10] = system: UO-31 renal
Compound,GI50 [1],TGI [1],GI50 [2],TGI [2],GI50 [3] [µM],TGI [3] [µM],GI50 [4],TGI [4],GI50 [5] [µM],TGI [5],GI50 [6] [µM],TGI [6],GI50 [7],TGI [7],GI50 [8],TGI [8],GI50 [9],TGI [9],GI50 [10],TGI [10]
NC1=Nc2cc(OCCCCN3Cc4ccccc4C3)c(OCC3CC3)cc2C12CCCC2,1.57 µM,3.07 µM,1.2 µM,2.56 µM,1.49,4.18,1.55 µM,3.02 µM,1.69,7.81 µM,1.22,2.6 µM,1.94 µM,3.83 µM,3.28 µM,12.4 µM,1.61 µM,4.48 µM,1.46 µM,2.88 µM
O=C(CNC(=O)c1cccc2ccccc12)Nc1ccccc1Oc1ccc(O)cc1,8.98 µM,> 25 µM,0.978 µM,> 25 µM,1.34,> 25,3.18 µM,> 25 µM,1.31,> 25 µM,0.5,1.72 µM,0.62 µM,> 25 µM,1.42 µM,> 25 µM,0.459 µM,> 25 µM,1.78 µM,> 25 µM
CCCCCCCCCCCCNC(=O)N[C@H](C(=O)N[C@H]1/C=C/OCCNC(=O)/C=C/[C@H](C(C)C)NC1=O)C(C)C,12.9 µM,> 60.1 µM,1.67 µM,21.7 µM,3.22,38.1,11.7 µM,49.3 µM,0.682,> 100 µM,3.65,28.2 µM,21.4 µM,> 100 µM,4.3 µM,> 100 µM,0.393 µM,20.9 µM,> 100 µM,> 100 µM
COc1cc(-c2nn(-c3cccc(NC(=O)NCCNC(=O)c4ccccc4)c3)cc2-c2ccncc2)ccc1Cl,5.42 µM,> 100 µM,0.392 µM,> 100 µM,6.29,> 100,2.99 µM,> 100 µM,2.4,> 100 µM,1.94,6.42 µM,1.63 µM,4.57 µM,4.83 µM,> 100 µM,2.42 µM,> 100 µM,2.76 µM,> 100 µM
O=c1c2cc(F)ccc2sc2c(NCCCNCCO)nc3ccc(F)cc3c12,1.64 µM,3.18 µM,1.84 µM,3.63 µM,1.79,4.1,1.45 µM,2.88 µM,1.67,3.3 µM,1.51,2.95 µM,1.77 µM,3.23 µM,1.72 µM,3.29 µM,3.41 µM,> 100 µM,1.11 µM,2.37 µM
O=C(/C=C/c1ccccc1)c1ccccn1,–,26.7 µM and 35.8 µM,6.9 µM and 15.4 µM,19.4 µM and 30.3 µM,–,77.3,15.6 µM and 35.8 µM,30.7 µM and > 100 µM,–,47.3 µM and 41.3 µM,–,37.4 µM and 36.5 µM,–,33.9 µM and 59.9 µM,15.1 µM and 31.9 µM,31 µM and > 100 µM,1.96 µM and 7.94 µM,7.7 µM and 54.6 µM,–,31 µM and 46.5 µM
COc1cc(F)c(F)c(F)c1C(=O)c1cnc(NC2CCN(S(C)(=O)=O)CC2)nc1N,2.87 µM,> 21.6 µM,0.56 µM,> 25 µM,3.17,18.1,1.26 µM,16 µM,0.476,9.3 µM,0.534,1.98 µM,1.58 µM,> 9.45 µM,1.39 µM,> 25 µM,0.371 µM,> 10 µM,1.6 µM,13.4 µM
Nc1nc(N)c2nc(CNc3ccc(C(=O)NC(CCC(=O)O)C(=O)O)cc3)cnc2n1 (centres undefined),0.0329 µM and < 0.01 µM,> 100 µM,< 0.01 µM,> 100 µM,> 100,> 100,> 23.1 µM and 6.99 µM,> 100 µM,< 0.01,> 100 µM,–,> 100 µM,0.0327 µM and < 0.0134 µM,> 100 µM,0.0634 µM and 0.0656 µM,> 100 µM,< 0.01 µM,> 100 µM,0.0262 µM and < 0.01 µM,> 100 µM
CC[C@@]12CC(C(=O)OC)=C3Nc4ccccc4[C@@]34CCN(C[C@H]3O[C@H]31)[C@@H]24,> 100 µM,> 100 µM,43.8 µM,> 100 µM,25.4,> 100,47.6 µM,> 100 µM,52.7,> 100 µM,26.4,> 100 µM,36.7 µM,> 100 µM,16.1 µM,30.7 µM,24 µM,> 100 µM,34.9 µM,> 100 µM
Cc1ccc(CNc2ccc(Cl)cc2NCc2ccc(C)c(O)c2)cc1O,8.96 µM,16.6 µM,7.78 µM,14.6 µM,7.73,24.6,5.63 µM,12.9 µM,6.33,13.3 µM,7.5,14.5 µM,8.24 µM,15.2 µM,7.69 µM,15.3 µM,5.75 µM,18.2 µM,5.42 µM,11.7 µM
COc1ccc2c(c1)OCC1c3cc(OC)ccc3OC21 (centres undefined),5.42 µM,58 µM,47.5 µM,> 100 µM,> 100,> 100,46.4 µM,> 100 µM,91.2,> 100 µM,58,> 100 µM,20.4 µM,> 100 µM,> 100 µM,> 100 µM,1.44 µM,29.6 µM,39 µM,> 100 µM
CC(C)c1c(C(=O)Nc2ccccc2)c(-c2ccccc2)c(-c2ccc(F)cc2)n1CC[C@@H](O)C[C@@H](O)CC(=O)O,27.4 µM,> 71.5 µM,10.1 µM,> 100 µM,15.6,> 100,1.61 µM,6.63 µM,7.31,> 100 µM,8.75,47.2 µM,6.74 µM,> 60.6 µM,10.5 µM,> 100 µM,4.35 µM,39 µM,30.2 µM,> 100 µM
CC(C)OC(=O)OCOP(=O)(OCOC(=O)OC(C)C)C1CCCN(O)C1=O (centres undefined),2.07 µM,44.7 µM,0.711 µM,> 100 µM,0.586,6.56,0.632 µM,> 100 µM,7.55,> 100 µM,0.316,2.88 µM,7.14 µM,> 100 µM,1.21 µM,> 100 µM,1.25 µM,> 100 µM,0.197 µM,68.1 µM
CC(=O)Nc1ccc(S(=O)(=O)N2C(=O)CCC2C(=O)Nc2ccccc2)cc1 (centres undefined),0.645 µM,5.62 µM,0.389 µM,20 µM,2.71,36.2,1.38 µM,9.49 µM,1.08,15.7 µM,3.48,13.9 µM,0.33 µM,3.41 µM,1.74 µM,19.2 µM,0.913 µM,12.1 µM,0.55 µM,16.5 µM
COc1ncc(-c2ccc3nc(N)n(-c4ccccc4C(F)(F)F)c(=O)c3c2)cc1S(=O)(=O)Nc1ccc(F)cc1F,1.74 µM,13.7 µM,1.7 µM,15.9 µM,1.3,84.4,0.217 µM,0.755 µM,1.71,73.7 µM,0.099,4.46 µM,1.41 µM,17.5 µM,7.87 µM,45.8 µM,1.35 µM,17.3 µM,–,–
Cc1ccccc1C1N=C2Oc3ccccc3C=C2C(=O)N1 (centres undefined),4.69 µM,> 58.7 µM,6.37 µM,> 100 µM,2.82,> 100,1.81 µM,33.3 µM,0.86,> 100 µM,0.488,–,1.46 µM,> 25.9 µM,> 42.9 µM,> 100 µM,14.5 µM,> 88.3 µM,7.5 µM,> 100 µM
FC(F)(F)c1ccc(-c2cnc(-c3nn[nH]n3)nc2NC2CCCCCC2)cc1,> 10 µM,> 10 µM,> 10 µM,> 10 µM,> 10,> 10,> 10 µM,> 10 µM,> 10,> 10 µM,> 10,> 10 µM,> 10 µM,> 10 µM,> 10 µM,> 10 µM,> 10 µM,> 10 µM,> 10 µM,> 10 µM
N/C(=N\O)c1cn(C2OC(CO)C(O)C2O)c2ncnc(N)c12 (centres undefined),0.212 µM,1.43 µM,0.0633 µM,> 100 µM,0.263,3.62,0.197 µM,18.9 µM,0.343,5.79 µM,0.169,0.722 µM,0.275 µM,7.3 µM,0.301 µM,> 100 µM,0.0876 µM,14.8 µM,0.229 µM,13.4 µM
CC1(C)N=C(N)N=C(N)N1c1cccc(CC(=O)Nc2ccccc2)c1,24 µM,> 100 µM,4.28 µM,> 100 µM,11.5,73.2,> 100 µM,> 100 µM,0.895,> 100 µM,> 100,> 100 µM,30.6 µM,> 100 µM,39.7 µM,> 100 µM,2.53 µM,> 100 µM,> 100 µM,> 100 µM
C=C(C)[C@@H]1CC[C@]2(C(=O)OC)CC[C@]3(C)[C@H](CC[C@@H]4[C@@]5(C)CC/C(=N\OCCC(=NCCC#N)NOCCC#N)C(C)(C)[C@@H]5CC[C@]43C)[C@@H]12,13.8 µM,> 50 µM,2.89 µM,> 50 µM,30.2,> 50,10.3 µM,> 50 µM,2.26,> 50 µM,5.64,16.6 µM,21.4 µM,> 50 µM,12.6 µM,> 50 µM,2.87 µM,16.5 µM,15.6 µM,> 50 µM
Cc1n[nH]c(C)c1-c1c(C)n[nH]c1C,1.96 µM,3.82 µM,1.48 µM,3.01 µM,2.26,16.9,1.83 µM,4.53 µM,1.51,4.01 µM,1.52,3.07 µM,1.81 µM,3.63 µM,2.06 µM,5.13 µM,1.21 µM,> 100 µM,1.31 µM,2.7 µM
CCc1ccc2cc3c(ccc4ccccc43)c3c2c1CC3,> 100 µM,> 100 µM,> 100 µM,> 100 µM,> 100,> 100,> 100 µM,> 100 µM,> 100,> 100 µM,> 100,> 100 µM,–,–,> 100 µM,> 100 µM,> 100 µM,> 100 µM,> 100 µM,> 100 µM
COc1cnc2c(c1)C(=O)c1c-2n(CCCN2CCNCC2)c(=O)c2cc(F)ccc12,1.05 µM,2.56 µM,0.0919 µM,1.31 µM,2.08,16.9,0.479 µM,1.94 µM,0.596,2.51 µM,0.27,1.73 µM,–,–,0.13 µM,1.24 µM,0.05 µM,0.863 µM,0.133 µM,1.12 µM
C=CN(C(=O)N1CCN(c2cc3c(cc2F)c(=O)c(C(=O)O)cn3C2CC2)CC1)c1nc(-c2ccc(C)cc2)cs1,3.85 µM,> 100 µM,0.319 µM,> 100 µM,3.45,21.3,2.99 µM,> 100 µM,0.376,6.52 µM,4,> 100 µM,2.59 µM,7.11 µM,4.16 µM,> 100 µM,2.15 µM,> 100 µM,–,–
